Measured values: PMC3899525 (Cell, 2013)

Molecular target: T1, Gr21a/Gr63a heteromeric CO2 receptor (ab1C neuron) (Drosophila melanogaster, UniProt Q9VPT1+Q9VZL7)
T1 sequence (Q9VPT1 1-447): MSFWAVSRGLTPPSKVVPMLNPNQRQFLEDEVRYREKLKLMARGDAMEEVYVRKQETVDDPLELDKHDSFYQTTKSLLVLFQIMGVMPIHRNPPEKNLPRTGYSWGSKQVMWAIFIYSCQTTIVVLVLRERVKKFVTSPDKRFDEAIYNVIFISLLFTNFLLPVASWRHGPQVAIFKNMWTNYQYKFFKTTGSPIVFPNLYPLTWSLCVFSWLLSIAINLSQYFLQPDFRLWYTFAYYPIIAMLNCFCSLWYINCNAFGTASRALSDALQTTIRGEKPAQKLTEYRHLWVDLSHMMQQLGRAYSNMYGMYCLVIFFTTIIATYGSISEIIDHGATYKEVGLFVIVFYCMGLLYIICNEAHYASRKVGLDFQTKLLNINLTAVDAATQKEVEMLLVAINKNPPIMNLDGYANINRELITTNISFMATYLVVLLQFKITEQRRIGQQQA
T1 sequence (Q9VZL7 1-512): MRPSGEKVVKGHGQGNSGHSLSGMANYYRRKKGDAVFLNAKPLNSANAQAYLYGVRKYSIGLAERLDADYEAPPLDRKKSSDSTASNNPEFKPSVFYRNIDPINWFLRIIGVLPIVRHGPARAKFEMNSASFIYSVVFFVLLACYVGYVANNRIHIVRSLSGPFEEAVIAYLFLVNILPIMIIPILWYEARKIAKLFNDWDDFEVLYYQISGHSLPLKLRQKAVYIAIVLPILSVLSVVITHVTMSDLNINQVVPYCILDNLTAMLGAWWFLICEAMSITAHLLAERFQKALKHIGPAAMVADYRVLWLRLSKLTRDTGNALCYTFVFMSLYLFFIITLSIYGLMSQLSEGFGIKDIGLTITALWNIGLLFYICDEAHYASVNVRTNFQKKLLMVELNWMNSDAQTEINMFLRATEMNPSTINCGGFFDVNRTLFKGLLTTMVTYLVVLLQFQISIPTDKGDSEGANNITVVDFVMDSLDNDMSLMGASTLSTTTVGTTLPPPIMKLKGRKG
Test: single-sensillum recording of ab1C neuron
Assay type: cell-based
Settings: inhibitor; orco mutant flies; native neuron in vivo

CCOC(=O)C(C)=O [ethyl pyruvate]
single-sensillum recording of ab1C neuron: the cpA inhibitor ethyl pyruvate also effectively inhibited the ab1C neuron
